Measured values as given in US7045528B2, “Benzofused heterozryl amide derivatives of thienopyridines useful as therapeutic agents, pharmaceutical compositions including the same, and methods for their use” (Agouron Pharmaceuticals, Inc., priority 2002, dated 2006).

Experiments:
[1] = system: human umbilical vein endothelial cells (HUVEC); assay: HUVEC+VEGF proliferation assay; assay type: cell-based; details: Homo sapiens, HUVEC; VEGF 6 ng/mL, 72 h, MTT
Summary of the method: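 Exponentially growing passage 3–4 HUVEC were starved 24 h in F12K + 1% FBS, given compound (0.1% final DMSO) 1 h before 6 ng/mL final VEGF, then cultured 72 h. Proliferation was read as MTT dye reduction (4 h exposure), absorbance at 595 nm.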

KDR (VEGFR2) = target: T1, KDR (VEGFR2) (Homo sapiens, UniProt P35968); assay: KDR (VEGFR2) phosphorylation in PAE-KDR cells assay; assay type: cell-based; details: PAE cells overexpressing human KDR, VEGF stimulated; read-out: PAE KDR autophos IC50 (nM) AVG
T1 construct: expressed in transfected cells; host or cells: porcine aorta endothelial (PAE)-KDR cells
T1 sequence (P35968 20-1356): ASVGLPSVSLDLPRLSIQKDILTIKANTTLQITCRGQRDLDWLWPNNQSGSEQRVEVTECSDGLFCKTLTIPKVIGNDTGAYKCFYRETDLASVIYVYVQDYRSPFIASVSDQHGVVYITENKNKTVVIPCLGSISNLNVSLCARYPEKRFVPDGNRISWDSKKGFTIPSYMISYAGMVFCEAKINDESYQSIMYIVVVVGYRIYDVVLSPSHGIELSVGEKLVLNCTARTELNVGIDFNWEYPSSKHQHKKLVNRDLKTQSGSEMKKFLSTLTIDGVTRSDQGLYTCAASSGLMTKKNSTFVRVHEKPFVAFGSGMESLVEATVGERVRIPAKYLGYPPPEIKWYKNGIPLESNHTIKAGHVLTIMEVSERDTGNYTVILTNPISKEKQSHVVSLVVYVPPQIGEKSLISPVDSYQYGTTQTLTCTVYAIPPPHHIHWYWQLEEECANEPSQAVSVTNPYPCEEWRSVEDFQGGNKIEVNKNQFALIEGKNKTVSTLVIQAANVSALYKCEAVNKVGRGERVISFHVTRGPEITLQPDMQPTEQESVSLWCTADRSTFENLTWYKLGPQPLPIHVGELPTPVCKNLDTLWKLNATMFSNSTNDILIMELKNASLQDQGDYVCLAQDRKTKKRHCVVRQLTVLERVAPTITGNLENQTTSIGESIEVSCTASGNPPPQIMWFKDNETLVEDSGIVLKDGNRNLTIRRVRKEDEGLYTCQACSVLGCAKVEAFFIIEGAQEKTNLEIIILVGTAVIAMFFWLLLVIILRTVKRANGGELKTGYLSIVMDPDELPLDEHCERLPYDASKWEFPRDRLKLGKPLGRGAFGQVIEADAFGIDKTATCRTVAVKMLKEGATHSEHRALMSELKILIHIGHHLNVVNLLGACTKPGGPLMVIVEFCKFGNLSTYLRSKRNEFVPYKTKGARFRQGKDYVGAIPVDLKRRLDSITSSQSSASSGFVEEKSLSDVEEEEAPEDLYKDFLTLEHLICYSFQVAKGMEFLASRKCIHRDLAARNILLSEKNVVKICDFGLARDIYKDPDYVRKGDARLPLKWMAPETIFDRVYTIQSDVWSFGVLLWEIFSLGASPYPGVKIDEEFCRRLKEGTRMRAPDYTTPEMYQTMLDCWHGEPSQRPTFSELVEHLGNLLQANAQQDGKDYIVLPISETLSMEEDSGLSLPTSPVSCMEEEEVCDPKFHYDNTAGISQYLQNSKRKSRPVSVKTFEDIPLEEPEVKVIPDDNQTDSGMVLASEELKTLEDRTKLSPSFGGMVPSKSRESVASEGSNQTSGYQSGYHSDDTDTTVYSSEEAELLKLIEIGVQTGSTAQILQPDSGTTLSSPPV
Description: KDR (VEGFR2) Phosphorylation in PAE-KDR Cells Assay
This assay determines the ability of a test compound to inhibit the autophosphorylation of KDR in porcine aorta endothelial (PAE)-KDR cells. PAE cells that overexpress human KDR were used in this assay. The cells were cultured in Ham's F12 media supplemented with 10% fetal bovine serum (FBS) and 400 ug/mL G418. Thirty thousands cells were seeded into each well of a 96-well plate in 75 μL of growth media and allowed to attach for 6 hours at 37° C. Cells were then exposed to the starvation media (Ham's F12 media supplemented with 0.1% FBS) for 16 hours. After the starvation period was over, 10 μL of test agent in 5% DMSO in starvation media were added to the test wells and 10 μL of the vehicle (5% DMSO in starvation media) were added into the control wells. The final DMSO concentration in each well was 0.5%. Plates were incubated at 37° C. for 1 hour and the cells were then stimulated with 500 ng/ml VEGF (commercially available from R & D System) in the presence of 2 mM Na3VO4 for 8 minutes. The cells were washed once with 1 mm Na3VO4 in HBSS and lysed by adding 50 μL per well of lysis buffer. One hundred μL of dilution buffer were then added to each well and the diluted cell lysate was transferred to a 96-well goat ant-rabbit coated plate (commercially available from Pierce) which was pre-coated with Rabbit anti Human Anti-flk-1 C-20 antibody (commercially available from Santa Cruz). The plates were incubated at room temperature for 2 hours and washed seven times with 1% Tween 20 in PBS. HRP-PY20 (commercially available from Santa Cruz) was diluted and added to the plate for a 30-minute incubation. Plates were then washed again and TMB peroxidase substrate (commercially available from Kirkegaard & Perry) was added for a 10-minute incubation. One hundred μL of 0.09 N H2SO4 was added to each well of the 96-well plates to stop the reaction. Phosphorylation status was assessed by spectrophotometer reading at 450 nm. IC50 values were calculated by curve fitting using a four-parameter analysis.

Huvec = assay: bFGF Huvec proliferation; assay type: cell-based, human; details: Homo sapiens, HUVEC
PDGFRβ = target: T2, PDGFRβ (Homo sapiens, UniProt P09619); assay: PAE-PDGFRβ phosphorylation in PAE-PDGFRB cells assay; assay type: cell-based; details: PAE cells overexpressing human PDGFRβ, PDGF-BB stimulated; read-out: PAE PDGFR autophos IC50 (nM) AVG
T2 construct: expressed in transfected cells; host or cells: porcine aorta endothelial (PAE)-PDGFRβ cells
T2 sequence (P09619 33-1106): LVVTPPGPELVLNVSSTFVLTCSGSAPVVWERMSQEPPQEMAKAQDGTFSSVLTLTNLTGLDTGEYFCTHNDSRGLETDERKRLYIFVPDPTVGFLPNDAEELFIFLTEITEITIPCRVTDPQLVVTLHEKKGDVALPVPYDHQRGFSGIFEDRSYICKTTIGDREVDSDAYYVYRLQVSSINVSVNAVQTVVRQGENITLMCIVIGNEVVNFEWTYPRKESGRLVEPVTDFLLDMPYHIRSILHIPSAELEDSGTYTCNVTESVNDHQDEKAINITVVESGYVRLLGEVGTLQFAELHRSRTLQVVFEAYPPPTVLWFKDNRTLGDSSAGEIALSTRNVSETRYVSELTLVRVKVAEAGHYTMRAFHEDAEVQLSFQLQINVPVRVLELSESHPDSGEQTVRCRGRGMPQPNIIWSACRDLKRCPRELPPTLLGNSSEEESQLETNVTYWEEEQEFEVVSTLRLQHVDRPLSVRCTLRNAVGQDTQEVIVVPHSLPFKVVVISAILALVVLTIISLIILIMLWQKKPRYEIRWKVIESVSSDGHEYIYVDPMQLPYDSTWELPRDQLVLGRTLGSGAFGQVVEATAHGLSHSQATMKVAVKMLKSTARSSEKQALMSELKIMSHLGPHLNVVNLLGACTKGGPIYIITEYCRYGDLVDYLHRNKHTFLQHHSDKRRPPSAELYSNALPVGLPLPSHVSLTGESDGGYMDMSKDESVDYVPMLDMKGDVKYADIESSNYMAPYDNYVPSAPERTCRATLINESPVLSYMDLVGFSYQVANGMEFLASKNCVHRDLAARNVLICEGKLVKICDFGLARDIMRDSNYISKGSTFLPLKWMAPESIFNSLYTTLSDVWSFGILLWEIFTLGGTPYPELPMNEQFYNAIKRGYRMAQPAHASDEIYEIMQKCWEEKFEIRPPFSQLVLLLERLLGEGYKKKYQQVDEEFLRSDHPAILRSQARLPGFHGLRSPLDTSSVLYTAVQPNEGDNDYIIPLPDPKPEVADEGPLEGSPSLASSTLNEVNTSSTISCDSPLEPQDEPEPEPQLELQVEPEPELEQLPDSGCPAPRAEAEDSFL
Summary of the method: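 Inhibition of PDGF-BB-induced (1 μg/mL, 8 min, with 2 mM vanadate) PDGFRβ autophosphorylation in porcine aortic endothelial cells expressing the human receptor. Cells were starved 16 h and pretreated with compound 1 h at 37 °C. Lysates were captured with anti-PDGFRβ and probed with HRP-PY20 at 450 nm; four-parameter IC50.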

| Compound | IC50 (KDR (VEGFR2)) [nM] | IC50 (PDGFRβ) [nM] | IC50 [1] [nM] | IC50 (Huvec) [nM] |
| --- | --- | --- | --- | --- |
| CNC(=O)c1c(C)sc2cc(Oc3ccnc4cc(C(=O)N5CC[C@@H](O)C5)sc34)ccc12 [Example 6, 6-(2-[(R)-3-hydroxypyrrolidine-1-carbonyl]thieno[3,2-b]pyridin-7-yloxy)-2-methylbenzo[b]thiophene-3-carboxylic acid methylamide] | – | 255 | 1.2 | 145 |
| CNC(=O)c1c(C)sc2cc(Oc3ccnc4cc(C(=O)N5CC[C@@H](OC)C5)sc34)ccc12 [Example 4, 6-(2-[(R)-3-methoxypyrrolidine-1-carbonyl]thieno[3,2-b]pyridin-7-yloxy)-2-methylbenzo[b]thiophene-3-carboxylic acid methylamide] | 0.47 | 284 | 0.404 | – |
| CNC(=O)c1c(C)n(C)c2cc(Oc3ccnc4cc(C(=O)N5CC[C@@H](O)C5)sc34)ccc12 [Example 19, 1,2-dimethyl-6-(2-[3-hydroxy-pyrrolidine-1-carbonyl]thieno[3,2-b]pyridin-7-yloxy)-1H-indole-3-carboxylic acid methylamide] | 1.7 | 172 | 2.7 | 10000 |
| CNC(=O)c1c(C)sc2cc(Oc3ccnc4cc(C(=O)N5CCC[C@H]5COC)sc34)ccc12 [Example 2, 6-(2-[(S)-2-(methoxymethyl)pyrrolidine-1-carbonyl]thieno[3,2-b]pyridin-7-yloxy)-2-methylbenzo[b]thiophene-3-carboxylic acid methylamide] | 1.8 | 912 | 2.3 | 3330 |
| CNC(=O)c1c(C)sc2cc(Oc3ccnc4cc(C(=O)N5CCC[C@H]5CO)sc34)ccc12 [Example 3] | 0.9 | 756 | 0.442 | 942 |

Compounds with a lower IC50 (PDGFRβ), results first:

| IC50 (KDR (VEGFR2)) [nM] | IC50 (PDGFRβ) [nM] | Compound | IC50 [1] [nM] | IC50 (Huvec) [nM] |
| --- | --- | --- | --- | --- |
| 0.4 | 17.8 | CCCNC(=O)c1c(C)n(C)c2cc(Oc3ccnc4cc(-c5nccn5C)sc34)ccc12 [Example 61, 1,2-Dimethyl-6-[2-(1-methyl-1H-imidazol-2-yl)thieno[3,2-b]pyridin-7-yloxy]-1H-indole-3-carboxylic acid propylamide] | 0.605 | 4000 |
| 0.21 | 41 | CNC(=O)c1c(C)oc2cc(Oc3ccnc4cc(-c5nccn5C)sc34)ccc12 [Example 13] | 0.082 | 27 |
| 0.62 | 32 | CNC(=O)c1c(C)n(C)c2cc(Oc3ccnc4cc(C(=O)N5CC[C@@H](OC)C5)sc34)ccc12 [Example 18, 1,2-dimethyl-6-(2-[3-methoxy-pyrrolidine-1-carbonyl]thieno[3,2-b]pyridin-7-yloxy)-1H-indole-3-carboxylic acid methylamide] | 0.64 | 1000 |
| 0.24 | 18.7 | CCCCNC(=O)c1c(C)n(C)c2cc(Oc3ccnc4cc(-c5nccs5)sc34)ccc12 [Example 62, 1,2-Dimethyl-6-(2-thiazol-2-yl-thieno[3,2-b]pyridin-7-yloxy)-1H-indole-3-carboxylic acid butylamide] | 2.15 | 619 |
| 0.14 | 14.4 | CNC(=O)c1c(C)oc2cc(Oc3ccnc4cc(C(=O)N5CC[C@@H](OC)C5)sc34)ccc12 [Example 12, 6-(2-[3-methoxypyrrolidine-1-carbonyl]thieno[3,2-b]pyridin-7-yloxy)-2-methylbenzofuran-3-carboxylic acid methylamide] | 0.26 | 20 |
| 0.31 | 164 | CNC(=O)c1c(C)sc2cc(Oc3ccnc4cc(-c5nccn5C)sc34)ccc12 [Example 1, 2-methyl-6-(2-[1-methyl-1H-imidazol-2-yl]thieno[3,2-b]pyridin-7-yloxy)benzo[b]thiophene-3-carboxylic acid methylamide] | 0.68 | 122 |
| 0.217 | 43 | Cc1c(C(=O)NC2CC2)c2ccc(Oc3ccnc4cc(-c5nccn5C)sc34)cc2n1C [Example 20, 1,2-Dimethyl-6-[2-(1-methyl-1H-imidazol-2-yl)-thieno[3,2-b]pyridin-7-yloxy]-1H-indole-3-carboxylic acid cyclopropylamide] | 0.19 | 1900 |
| 0.47 | 20 | CNC(=O)c1c(C)n(C)c2cc(Oc3ccnc4cc(-c5nccn5C)sc34)ccc12 [Example 17, 1,2-dimethyl-6-(2-[1-methyl-1H-imidazol-2-yl]thieno[3,2-b]pyridin-7-yloxy)-1H-indole-3-carboxylic acid methylamide] | 1.2 | 847 |
